In US20260167619A2, “INDOLINE COMPOUNDS AND DERIVATIVES AS EGFR INHIBITORS” (BeOne Medicines I GmbH, priority 2020, published 2026):

Legend:
[1] = molecular target: EGFR(Dell9_T790M_C797S) (aa 669-1210, in house) (Homo sapiens, UniProt P00533, T790M/C797S, form not given); test: Biochemical EGFR inhibition assay (TR-FRET), Del19/T790M/C797S mutant; conditions: ATP at Km, 15 min pre-incubation, 60 min reaction; read-out: Del_TM_CS (Km ATP) IC50
Description: (§1) Compounds were tested for inhibition of kinase activity against EGFR (aa668-1210, Invitrogen), EGFR(L858R_T790M_C797S) (aa695-end, Invitrogen) and EGFR(Dell9_T790M_C797S) (aa 669-1210, in house) in assays based on time-resolved fluorescence-resonance energy transfer (TR-FRET) methodology. Recombinant EGFR, EGFR(L858R_T790M_C797S) or EGFR(Dell9_T790M_C797S) was pre-incubated with the compounds at room temperature for 15 minutes in an assay buffer containing 50 mM HEPES pH7.5, 10 mM MgCl2, 2 mM DTT, 1 mM EGTA, 0.1% BSA, 0.01% Tween-20. The reactions were initiated by the addition of ATP (at the concentration of ATP Km) and substrate Biotin-Poly GT. After reaction at room temperature for 60 minutes, stop/detection solution was added. The stop/detection solution contained Eu^3+ cryptate-conjugated mouse monoclonal antibody (PT66) anti-phosphotyrosine and XL665-conjugated streptavidin in buffer containing 50 mM HEPES pH7.0, 800 mM KF, 20 mM EDTA, and 0.1% BSA. Plates were sealed and incubated at room temperature for 1 hour, and the TR-FRET signals (ratio of fluorescence emission at 665 nm over emission at 620 nm with excitation at 337 nm wavelength) were recorded on a PHERAstar FS plate reader (BMG Labtech). The residual enzyme activity in presence of increasing concentrations of compounds was calculated based on the ratio of fluorescence at 665 nm to that at 620 nm. The IC50 for each compound was derived from fitting the data to the four-parameter logistic equation by Dotmatics or Graphpad Prism software.
(§2) These biochemical EGFR enzyme form compound dose-response assays quantify the kinase activity via phosphorylation of a tagged poly-GT substrate. The results of the assay are provided as IC50 values.

[2] = molecular target: T1, EGFR (aa668-1210, Invitrogen) (Homo sapiens, UniProt P00533); test: Biochemical EGFR inhibition assay (TR-FRET), wild-type EGFR; conditions: ATP at Km, 15 min pre-incubation, 60 min reaction; read-out: WT (Km ATP) IC50
T1 construct: EGFR (aa668-1210, Invitrogen); purchased Invitrogen
T1 sequence (P00533 668-1210): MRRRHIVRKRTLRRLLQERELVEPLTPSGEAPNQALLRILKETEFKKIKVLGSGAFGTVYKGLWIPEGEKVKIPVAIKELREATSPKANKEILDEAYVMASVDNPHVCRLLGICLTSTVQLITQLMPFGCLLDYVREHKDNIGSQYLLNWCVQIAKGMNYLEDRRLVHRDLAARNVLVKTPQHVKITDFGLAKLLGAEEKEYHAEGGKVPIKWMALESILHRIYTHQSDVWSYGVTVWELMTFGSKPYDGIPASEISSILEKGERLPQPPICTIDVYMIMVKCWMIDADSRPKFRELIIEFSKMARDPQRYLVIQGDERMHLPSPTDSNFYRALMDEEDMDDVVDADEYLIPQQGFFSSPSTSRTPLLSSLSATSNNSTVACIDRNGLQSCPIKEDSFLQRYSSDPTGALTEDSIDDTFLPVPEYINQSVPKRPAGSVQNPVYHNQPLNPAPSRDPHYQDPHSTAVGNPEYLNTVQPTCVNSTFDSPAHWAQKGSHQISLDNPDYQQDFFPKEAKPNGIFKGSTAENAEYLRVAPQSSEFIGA
Description: as §1, §2

[3] = molecular target: T2, EGFR(L858R_T790M_C797S) (aa695-end, Invitrogen) (Homo sapiens, UniProt P00533, C797S/L858R/T790M); test: Biochemical EGFR inhibition assay (TR-FRET), L858R/T790M/C797S mutant; conditions: ATP at Km, 15 min pre-incubation, 60 min reaction; read-out: LR_TM_CS (Km ATP) IC50
T2 construct: purchased Invitrogen
T2 sequence (P00533 695-1210 T790M/C797S/L858R): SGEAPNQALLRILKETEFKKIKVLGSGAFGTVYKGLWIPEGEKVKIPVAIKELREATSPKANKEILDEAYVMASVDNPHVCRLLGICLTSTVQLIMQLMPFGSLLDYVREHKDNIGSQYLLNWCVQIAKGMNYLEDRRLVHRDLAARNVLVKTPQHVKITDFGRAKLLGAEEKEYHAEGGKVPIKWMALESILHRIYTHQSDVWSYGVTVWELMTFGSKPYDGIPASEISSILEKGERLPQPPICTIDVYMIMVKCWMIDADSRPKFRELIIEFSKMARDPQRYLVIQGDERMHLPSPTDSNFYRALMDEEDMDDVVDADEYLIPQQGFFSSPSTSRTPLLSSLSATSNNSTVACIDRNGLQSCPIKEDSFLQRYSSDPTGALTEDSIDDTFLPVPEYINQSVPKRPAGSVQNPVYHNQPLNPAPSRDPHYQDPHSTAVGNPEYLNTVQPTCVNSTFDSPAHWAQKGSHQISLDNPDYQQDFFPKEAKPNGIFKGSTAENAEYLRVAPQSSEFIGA
Description: as §1, §2

Sequence of EGFR(Dell9_T790M_C797S) (aa 669-1210, in house) (P00533 with tags, fused parts or gaps DEL746-750/T790M/C797S, form open): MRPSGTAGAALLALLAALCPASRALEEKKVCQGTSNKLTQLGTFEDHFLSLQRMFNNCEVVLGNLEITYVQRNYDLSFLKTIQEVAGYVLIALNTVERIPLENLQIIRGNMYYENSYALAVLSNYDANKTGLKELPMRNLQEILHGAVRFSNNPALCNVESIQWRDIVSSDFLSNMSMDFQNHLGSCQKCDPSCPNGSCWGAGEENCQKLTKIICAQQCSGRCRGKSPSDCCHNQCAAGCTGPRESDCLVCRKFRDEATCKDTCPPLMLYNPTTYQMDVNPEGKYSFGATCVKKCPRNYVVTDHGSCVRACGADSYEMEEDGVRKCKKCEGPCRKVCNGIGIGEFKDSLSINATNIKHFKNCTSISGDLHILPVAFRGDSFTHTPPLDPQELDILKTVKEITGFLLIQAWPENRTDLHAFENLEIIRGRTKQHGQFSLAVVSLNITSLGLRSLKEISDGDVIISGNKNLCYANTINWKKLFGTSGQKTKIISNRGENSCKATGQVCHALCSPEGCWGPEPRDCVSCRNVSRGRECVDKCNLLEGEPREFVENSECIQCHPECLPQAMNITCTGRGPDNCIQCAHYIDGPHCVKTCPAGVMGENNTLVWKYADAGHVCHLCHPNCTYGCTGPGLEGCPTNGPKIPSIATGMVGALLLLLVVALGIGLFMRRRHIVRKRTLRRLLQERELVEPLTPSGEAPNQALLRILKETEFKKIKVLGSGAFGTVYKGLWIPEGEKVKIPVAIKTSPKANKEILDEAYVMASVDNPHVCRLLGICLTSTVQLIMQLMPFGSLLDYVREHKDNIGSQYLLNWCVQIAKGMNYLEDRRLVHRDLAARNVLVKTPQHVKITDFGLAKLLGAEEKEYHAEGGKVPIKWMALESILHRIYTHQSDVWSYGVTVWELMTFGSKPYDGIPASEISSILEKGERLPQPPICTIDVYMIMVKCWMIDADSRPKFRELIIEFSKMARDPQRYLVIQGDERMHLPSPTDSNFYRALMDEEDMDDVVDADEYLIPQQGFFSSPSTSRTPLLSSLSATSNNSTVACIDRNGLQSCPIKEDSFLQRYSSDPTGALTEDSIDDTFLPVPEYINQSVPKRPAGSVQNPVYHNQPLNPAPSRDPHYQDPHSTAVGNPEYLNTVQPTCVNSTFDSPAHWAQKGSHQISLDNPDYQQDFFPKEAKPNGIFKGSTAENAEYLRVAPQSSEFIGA

Row | Compound | IC50 [1] | IC50 [2] | IC50 [3]
1 | CCN1CCN(C2CCN(c3c(F)cc(Nc4nc(Nc5cccc6c5N(S(C)(=O)=O)CC6)c5cc[nH]c5n4)cc3F)CC2)CC1 [Example 78, N^2-(4-(4-(4-ethylpiperazin-1-yl)piperidin-1-yl)-3,5-difluorophenyl)-N^4-(1-(methylsulfonyl)indolin-7-yl)-7H-pyrrolo[2,3-d]pyrimidine-2,4-diamine] | 2 nM | 99 nM | 1.5 nM
2 | CC1Cc2c(N3CCC(N4CCN(C)CC4)CC3)ccc(Nc3ncc(Br)c(Nc4cccc5c4N(S(C)(=O)=O)CC5)n3)c2O1 (stereo not drawn) [Example 61, 5-bromo-N^2-(2-methyl-4-(4-(4-methylpiperazin-1-yl)piperidin-1-yl)-2,3-dihydrobenzofuran-7-yl)-N^4-(1-(methylsulfonyl)indolin-7-yl)pyrimidine-2,4-diamine] | 1.58 nM | 15.2 nM | 1.5 nM
3 | CN1CCN(C2CCN(c3ccc(Nc4nc(Nc5cccc6c5N(S(C)(=O)=O)CC6)c5cc[nH]c5n4)cc3)CC2)CC1 [Example 194, N2-(4-(4-(4-methylpiperazin-1-yl)piperidin-1-yl)phenyl)-N4-(1-(methylsulfonyl)indolin-7-yl)-7H-pyrrolo[2,3-d]pyrimidine-2,4-diamine] | 0.2 nM | 16.5 nM | 0.1 nM
4 | COc1cc(N2[C@@H]3CC[C@H]2CN(C)C3)ccc1Nc1nc(Nc2cccc3c2N(S(C)(=O)=O)CC3)c2cc[nH]c2n1 [Example 111, N^2-(2-methoxy-4-((1R,5S)-3-methyl-3,8-diazabicyclo[3.2.1]octan-8-yl)phenyl)-N^4-(1-(methylsulfonyl)indolin-7-yl)-7H-pyrrolo[2,3-d]pyrimidine-2,4-diamine] | 11.1 nM | 146 nM | 2.8 nM
5 | COc1cc(N(C)CCN(C)C)ccc1Nc1nc(Nc2cccc3c2N(S(C)(=O)=O)CC3)c2cc[nH]c2n1 [Example 112, N^2-(4-((2-(dimethylamino)ethyl)(methyl)amino)-2-methoxyphenyl)-N^4-(1-(methylsulfonyl)indolin-7-yl)-7H-pyrrolo[2,3-d]pyrimidine-2,4-diamine] | 14.6 nM | 840 nM | 2.9 nM
6 | COc1cc(N2CCC(N3CCN(C)CC3)CC2)c(C)cc1Nc1ncc(Br)c(Nc2cccc3c2N(S(C)(=O)=O)CC32CC2)n1 [Example 181, 5-bromo-N2-(2-methoxy-5-methyl-4-(4-(4-methylpiperazin-1-yl)piperidin-1-yl)phenyl)-N4-(1′-(methylsulfonyl)spiro[cyclopropane-1,3′-indolin]-7′-yl)pyrimidine-2,4-diamine] | 0.6 nM | 0.9 nM | 0.3 nM
7 | COc1cc(N2CCN(C)[C@@H](C)C2)c(C)cc1Nc1ncc(Br)c(Nc2cccc3c2N(S(C)(=O)=O)CC3)n1 [Example 43, (S)-5-bromo-N^2-(4-(3,4-dimethylpiperazin-1-yl)-2-methoxy-5-methylphenyl)-N^4-(1-(methylsulfonyl)indolin-7-yl)pyrimidine-2,4-diamine] | 0.5 nM | 12.1 nM | 0.5 nM
8 | COc1cc(N2CCC(N3CCN(C)CC3)CC2)c(C)cc1Nc1nc(N)c(Br)c(Nc2cccc3c2N(S(C)(=O)=O)CC3)n1 [Example 197, 5-bromo-N2-(2-methoxy-5-methyl-4-(4-(4-methylpiperazin-1-yl)piperidin-1-yl)phenyl)-N4-(1-(methylsulfonyl)indolin-7-yl)pyrimidine-24,6-triamine] | 2.9 nM | 1.2 nM | 1.2 nM
9 | COc1cc(N2C[C@@H](C)N(C)[C@@H](C)C2)c(C)cc1Nc1ncc(Br)c(Nc2cccc3c2N(S(C)(=O)=O)CC3)n1 [Example 42, 5-bromo-N^2-(2-methoxy-5-methyl-4-((3S,5R)-3,4,5-trimethylpiperazin-1-yl)phenyl)-N^4-(1-(methylsulfonyl)indolin-7-yl)pyrimidine-2,4-diamine] | 0.3 nM | 8.5 nM | 0.4 nM
10 | COc1cc(Nc2nc(Nc3cccc4c3N(S(C)(=O)=O)CC4)c3cc[nH]c3n2)cc(F)c1N1CCC(N2CCN(C)CC2)CC1 [Example 148, N2-(3-fluoro-5-methoxy-4-(4-(4-methylpiperazin-1-yl)piperidin-1-yl)phenyl)-N4-(1-(methylsulfonyl)indolin-7-yl)-7H-pyrrolo[2,3-d]pyrimidine-2,4-diamine] | 6.5 nM | 1390 nM | 9.9 nM
11 | CN(C)C1CCN(c2ccc(Nc3ncc(Br)c(Nc4cccc5c4N(S(C)(=O)=O)CC5)n3)c3c2CCC3)CC1 [Example 53, 5-bromo-N^2-(7-(4-(dimethylamino)piperidin-1-yl)-2,3-dihydro-1H-inden-4-yl)-N^4-(1-(methylsulfonyl)indolin-7-yl)pyrimidine-2,4-diamine] | 0.28 nM | 6.5 nM | 0.32 nM
12 | CN1CCN(C2CCN(c3ccc(Nc4nc(Nc5cccc6c5N(S(C)(=O)=O)CC6)c5cc[nH]c5n4)cn3)CC2)CC1 [Example 184, N2-(6-(4-(4-methylpiperazin-1-yl)piperidin-1-yl)pyridin-3-yl)-N4-(1-(methylsulfonyl)indolin-7-yl)-7H-pyrrolo[2,3-d]pyrimidine-2,4-diamine] | 2.5 nM | 427 nM | 1.7 nM
13 | CN1CCN(C2CCN(c3ccc(Nc4nc(Nc5cccc6c5N(S(C)(=O)=O)CC6)c5cc[nH]c5n4)cc3Cl)CC2)CC1 [Example 80, N^2-(3-chloro-4-(4-(4-methylpiperazin-1-yl)piperidin-1-yl)phenyl)-N^4-(1-(methylsulfonyl)indolin-7-yl)-7H-pyrrolo[2,3-d]pyrimidine-2,4-diamine] | 0.85 nM | 40.4 nM | 0.7 nM
14 | COc1cc(N2CCC(N3CCN(C)CC3)CC2)ncc1Nc1nc(Nc2cccc3c2N(S(C)(=O)=O)CC3)c2cc[nH]c2n1 [Example 190, N2-(4-methoxy-6-(4-(4-methylpiperazin-1-yl)piperidin-1-yl)pyridin-3-yl)-N4-(1-(methylsulfonyl)indolin-7-yl)-7H-pyrrolo[2,3-d]pyrimidine-2,4-diamine] | 5.6 nM | 883 nM | 3.8 nM
15 | CN1CCN(c2c(F)cc(Nc3ncc(Br)c(Nc4cccc5c4N(S(C)(=O)=O)CC5)n3)c3c2CCO3)CC1 [Example 58, 5-bromo-N^2-(5-fluoro-4-(4-methylpiperazin-1-yl)-2,3-dihydrobenzofuran-7-yl)-N^4-(1-(methylsulfonyl)indolin-7-yl)pyrimidine-2,4-diamine] | 1.57 nM | 10.3 nM | 1.7 nM
16 | CN1CCN(C2CCN(c3ccc(Nc4ncc(Br)c(Nc5cccc6c5N(S(C)(=O)=O)CC6)n4)c4c3OCCO4)CC2)CC1 [Example 193, 5-bromo-N2-(8-(4-(4-methylpiperazin-1-yl)piperidin-1-yl)-2,3-dihydrobenzo[b][1,4]dioxin-5-yl)-N4-(1-(methylsulfonyl)indolin-7-yl)pyrimidine-2,4-diamine] | 0.2 nM | 7.1 nM | 0.9 nM
17 | C#Cc1cnc(Nc2ccc(N3CCC(N4CCN(C)CC4)CC3)cc2OC)nc1Nc1cccc2c1N(S(C)(=O)=O)CC2 [Example 196, 5-ethynyl-N2-(2-methoxy-4-(4-(4-methylpiperazin-1-yl)piperidin-1-yl)phenyl)-N4-(1-(methylsulfonyl)indolin-7-yl)pyrimidine-2,4-diamine] | 1.5 nM | 9.3 nM | 1.3 nM
18 | CC1Cc2c(N3CCN(C)CC3)ccc(Nc3ncc(Br)c(Nc4cccc5c4N(S(C)(=O)=O)CC5)n3)c2O1 (stereo not drawn) [Example 62, 5-bromo-N^2-(2-methyl-4-(4-methylpiperazin-1-yl)-2,3-dihydrobenzofuran-7-yl)-N^4-(1-(methylsulfonyl)indolin-7-yl)pyrimidine-2,4-diamine] | 0.42 nM | 11.6 nM | 0.68 nM
19 | COc1cc(N2CCC(N3CCN(C)CC3)CC2)ccc1Nc1ncc(Br)c(Nc2cccc3c2N(S(C)(=O)=O)C(C)(C)C3)n1 [Example 134, 5-bromo-N4-(2,2-dimethyl-1-(methylsulfonyl)indolin-7-yl)-N2-(2-methoxy-4-(4-(4-methylpiperazin-1-yl)piperidin-1-yl)phenyl)pyrimidine-2,4-diamine] | 0.8 nM | 11.5 nM | 0.3 nM
